Laboratory results as given in ChEMBL document CHEMBL5724562, “Toxicity screen in isolated B cell assay results for EUbOPEN Chemogenomics Library” (2024).
Non-standard residues stand in square brackets, D forms with d. Residues, ends and D or L forms follow the SMILES beside them. Arg(Me) = CNC(=N)NCCC[C@H](N)C(=O)O; d4Pal = N[C@H](Cc1ccncc1)C(=O)O; azaGly = NNC(=O)O

Tested on: B cell
Assay: Cytotoxicity screening of chemical probes in isolated B cell assay. Data is normalized to DMSO control, the cell viability average of replicates are reported. Reduction of ATP level more than 20% indicate compromised cell health status.
Settings: human

CC(C)C[C@@H]1NC(=O)[C@@H](C(C)C)NC(=O)[C@@H]2CCCN2C(=O)[C@@H](CC(=O)O)NC(=O)[C@@H](Cc2c[nH]c3ccccc23)NC1=O [BQ-123] (cyclo(L[dW][dD]P[dV]))
Cell Viability (1 µM): 98.787%

Cc1cn(-c2cc(NC(=O)c3ccc4c(c3)CN(c3cncnc3)C[C@@H]4C)cc(C(F)(F)F)c2)cn1
Cell Viability (1 µM): 96.9111%

CS(=O)(=O)c1cc(C2(NC(=O)c3cncc4c3cnn4-c3ccc(F)cc3)CC2)ccn1 [BI 639667]
Cell Viability (2 µM): 99.2983%

CC(=O)c1cc(-c2cc(C(=O)NC3CC3)ccc2C)c2ncccn12
Cell Viability (1 µM): 95.0596%

CC(=O)C1=C(C)N(c2cccc(C(F)(F)F)c2)C(=O)N[C@@H]1c1ccc(C#N)nc1 [BAY-678]
Cell Viability (1 µM): 97.287%

CCC(=O)Nc1cc(Nc2cc(NC3CC3)n3ncc(C#N)c3n2)ccc1C
Cell Viability (1 µM): 88.1167%

Cc1ccc2nc(CNCCCOc3ccccc3)cc(O)c2c1 [UCSF924]
Cell Viability (1 µM): 96.7712%

C[C@H](NC(=O)c1cnc2n1[C@](C)(Cc1ccc(C#N)cc1)C(=O)N2c1cc(Cl)c(F)c(Cl)c1)C(=O)NC1(c2ccccn2)CC1 [BI 1950]
Cell Viability (1 µM): 96.273%

Cl.O=c1c2cccn2c2ccccc2n1CCCN1CCC(c2ccc(Cl)cc2)CC1
Cell Viability (1 µM): 96.0052%

Cn1cc(-c2ccc3occ(-c4cccc(-c5ccncc5)c4)c3n2)cn1
Cell Viability (1 µM): 101.775%

C[C@H](c1ccc(F)cc1)N(Cc1cccc(C(=O)O)c1)C(=O)c1cnc2ccccc2c1 [PF-05105679]
Cell Viability (1 µM): 99.1446%

CNC(=O)Nc1ccc2c(c1)CC[C@@]21OC(=O)N(CC(=O)N(Cc2ccc(F)cc2)[C@@H](C)C(F)(F)F)C1=O [A-485]
Cell Viability (0.1 µM): 92.4439%

CO[C@H]1CC[C@H](CNc2ccc(S(=O)(=O)NC(=O)c3ccc(N4CCN(CC5=C(c6ccc(Cl)cc6)CC(C)(C)CC5)CC4)cc3Oc3cnc4[nH]ccc4c3)cc2[N+](=O)[O-])CC1 [A-1211212]
Cell Viability (1 µM): 88.4422%

Cc1cc(C)c(-n2ccn3nc(-c4cccnc4)cc23)cc1NC(=O)c1cc(C#N)cc(S(F)(F)(F)(F)F)c1 [BAY-826]
Cell Viability (0.1 µM): 99.8561%

O=C(O)[C@H]1[C@H](Cn2nnc3ccccc3c2=O)CC[C@@H]1C(=O)c1ccc(OCCC2CCOCC2)cc1 [BAY-7598]
Cell Viability (0.1 µM): 98.8077%

Cc1cc(OCCCS(C)(=O)=O)cc(C)c1-c1cccc(COc2ccc3c(c2)OC[C@H]3CC(=O)O)c1
Cell Viability (1 µM): 101.968%

O=C(NC[C@H](O)CN1CCc2ccccc2C1)c1ccnc(NC2CCC2)c1
Cell Viability (1 µM): 91.5741%

CN(C)CCCOc1ccc(-c2cc(NCCCn3cccn3)nc(S(C)(=O)=O)n2)cc1
Cell Viability (1 µM): 98.5143%

Cc1c(N2CCCC2)nc2ccc(Br)cc2c1C(=O)NC[C@H](CCC(=O)O)c1ccccc1Cl [BAY-6672]
Cell Viability (1 µM): 98.0293%

CCCOc1ccc([C@H]2[C@H](C(=O)O)[C@@H](c3ccc4c(c3)OCO4)CN2CC(=O)Nc2c(CC)cccc2CC)cc1 [A-192621]
Cell Viability (0.1 µM): 97.3784%

Cl.Cl.c1ccc([C@@H]2C[C@H]2NC2CCNCC2)cc1
Cell Viability (1 µM): 93.3816%

Cc1cc(-n2nc(Cc3cc(F)cc(C(F)(F)F)c3)nc2C)ccc1C(N)=O [TP-024]
Cell Viability (1 µM): 100.697%

Cc1cnc(-c2cc(Cl)ccc2F)cc1-n1c(=O)n(CC(N)=O)c2cnccc21 [TP-008]
Cell Viability (1 µM): 103.993%

NS(=O)(=O)c1cc(NC(=O)Cc2ccccc2)ccc1Oc1cccc(Cl)c1 [BAY-1797]
Cell Viability (1 µM): 95.6935%

COc1ccncc1C(=O)NC(=O)Nc1ccc(-c2ccccc2)c(C(F)(F)F)c1
Cell Viability (1 µM): 100.618%

CSc1cc2c(cc1C(F)(F)F)N(C(=O)Nc1cccnc1)CC2
Cell Viability (1 µM): 99.9626%

Cc1cc(Cn2cnc3c2C[C@@H](C(=O)O)N(C(=O)C(c2ccccc2)c2ccccc2)C3)ccc1N(C)C
Cell Viability (1 µM): 100.94%

CNC(=O)c1cc(C(=O)NC2CC2)cn(Cc2ccccc2)c1=O [GSK620]
Cell Viability (1 µM): 102.307%

COCCOc1nc(-c2ccc(Cl)nc2)nc2c1CN(C(=O)c1ncn3ccccc13)CC2 [THPP-1]
Cell Viability (0.1 µM): 97.9791%

CCCS(=O)(=O)c1nc(NC2CC2)cc(-c2ccc3c(ccn3C3CC(C)(C)NC(C)(C)C3)c2)n1
Cell Viability (1 µM): 24.107%

C[C@@H](c1cccc(CN)c1)n1cc(Cl)cc(C(N)=O)c1=N.Cl
Cell Viability (1 µM): 100.561%

CCN(C(=O)CO)[C@H]1CN(/C(=N\C#N)Nc2cccc(OC(F)F)c2)N=C1c1ccc(Cl)c(Cl)c1
Cell Viability (1 µM): 100.495%

Cc1[nH]cnc1CN1CCc2c(c3ccccc3n2C)C1=O [ALOSETRON]
Cell Viability (1 µM): 98.6661%

C[C@@H]1CN(Cc2ccc(F)cc2)CCN1C(=O)COc1ccc(Cl)cc1NC(N)=O [BX 471 FREE BASE]
Cell Viability (1 µM): 91.1693%

CCCCN(CCCC)C(=O)CN1C[C@H](c2cc(OC)c3c(c2)OCO3)[C@@H](C(=O)O)[C@@H]1CC(C)(C)CCC.Cc1ccc(S(=O)(=O)O)cc1
Cell Viability (0.1 µM): 100.019%

COc1ccccc1C(=O)Nc1cc2c(cc1N1CCCC1)n(C)c(=O)n2C
Cell Viability (1 µM): 98.47%

CCCCN(Cc1ccccc1)C(=O)c1ccc(S(=O)(=O)Nc2ccccc2)cc1
Cell Viability (1 µM): 99.9127%

CN1CCN(C(=O)C(C)(C)c2ccc(C(=O)Nc3cn4cc(-c5ccncc5)ccc4n3)cc2)CC1 [T3-CLK]
Cell Viability (1 µM): 73.6988%

COc1cc2c(cc1OCCCN1CCCC1)N=C(N)C21CCC1
Cell Viability (1 µM): 98.8274%

c1ccc2oc(-c3csc(C4CCN(Cc5nc6ncccc6[nH]5)CC4)n3)cc2c1
Cell Viability (1 µM): 83.0928%

C=CC(=O)N1CCC[C@@H](n2nc(-c3ccc(Oc4ccccc4)cc3)c3c(N)ncnc32)C1 [IBRUTINIB]
Cell Viability (1 µM): 86.9807%

O=C(NC[C@@H]1[C@H]2CN(C(=O)OCc3cc(C(F)(F)F)cc(C(F)(F)F)c3)C[C@@H]12)c1ccc2[nH]nnc2c1 [BI 2545]
Cell Viability (1 µM): 100.102%

CCOc1nc2cccc(C(=O)O)c2n1Cc1ccc(-c2ccccc2-c2nnn[nH]2)cc1
Cell Viability (1 µM): 101.389%

CC1(C)C(N)=Nc2cc(OCCCN3Cc4ccc(OCCc5cn(CC(=O)N6CCC(CCN7CCCC7)CC6)nn5)cc4C3)c(OCC3CC3)cc21
Cell Viability (1 µM): 92.0303%

CN(C)C(=O)c1ccc(-c2cc(C(=O)N[C@@H]3CCc4ccccc43)no2)cc1O
Cell Viability (1 µM): 97.9607%

C[C@H]1CC(=O)Nc2cc(C(=O)NCCC3CC3)ccc2N1C(=O)N1CC2CC2C1 (stereo not given in full)
Cell Viability (1 µM): 100.735%

CNC(=N)NCCC[C@H](NC(=O)[C@H](CC(C)C)NC(=O)NNC(=O)[C@H](Cc1ccccc1)NC(=O)[C@H](CO)NC(=O)[C@H](CC(N)=O)NC(=O)[C@@H](Cc1ccncc1)NC(=O)[C@H](N)Cc1ccc(O)cc1)C(=O)N[C@@H](Cc1ccccc1)C(N)=O [KISS1-305] (H-[dY][d4Pal]NSF[azaGly]L[Arg(Me)]F-NH2)
Cell Viability (1 µM): 101.037%

O=C(NCCCN1CCOC1=O)c1cnc(NCc2cc(Br)ccc2Br)nc1NC1CCCC1
Cell Viability (1 µM): 100.266%

Cc1ccc2c(c1CCC(=O)O)CC[C@@H](NS(=O)(=O)c1ccc(Cl)cc1)C2 [TERUTROBAN]
Cell Viability (1 µM): 102.464%

O=C(NCc1ncc(C(F)(F)F)cc1Cl)c1ccc2c(c1)C1(CCS(=O)(=O)CC1)[C@H](C1CC1)N2S(=O)(=O)c1ccc(F)cc1 [BAY-784]
Cell Viability (0.1 µM): 98.8405%

Cn1cc(CCn2cnc(-c3cnn(C)c3)c2-c2ccc(C#N)cc2)cn1
Cell Viability (1 µM): 99.8514%

Cc1c[nH]c2nccc(Oc3c(F)cc(Nc4cc(Cl)nc(N)n4)cc3F)c12 [BAY-549]
Cell Viability (0.1 µM): 99.4175%

COc1ccccc1S(=O)(=O)Nc1ccc2c(c1)CN(C)C(=O)N2
Cell Viability (1 µM): 94.2739%

Cc1c(Nc2ccc(S(=O)(=O)N3CCN(C)CC3)cc2F)nc2ccc(-c3cnn(C4CC4)c3)cn2c1=O
Cell Viability (1 µM): 96.0793%

CNCc1ccccc1-c1csc([C@@H](C)Nc2nc(C)nc3cc(OC)c(OC)cc23)c1 [BAY-293]
Cell Viability (1 µM): 78.8725%

O=S(=O)(c1ccccc1)c1cnc2c(N3CCNCC3)cccc2c1 [INTEPIRDINE]
Cell Viability (1 µM): 101.733%

c1cc(OCCCN2CCCCC2)ccc1CN1CCCCC1 [JNJ-5207852]
Cell Viability (1 µM): 101.482%

C[C@@H]1CN(c2cc(-c3n[nH]c4ccc(OC5(C)CC5)cc34)ncn2)C[C@H](C)O1 [MLi-2]
Cell Viability (1 µM): 96.3526%

COc1ccc2cc(OCC3(C(=O)O)CN(C(=O)c4ccc(F)cc4)C3)ccc2c1 [PF-04418948]
Cell Viability (0.1 µM): 98.5812%

CCCCN(CCCC)C(=O)CN1C[C@@H](c2cc(OC)c3c(c2)OCO3)[C@H](C(=O)O)[C@H]1CC(C)(C)CCC.Cl
Cell Viability (1 µM): 89.8179%

CN(C)C(=O)Cn1cc(-c2nc([C@@](C)(c3ccc(-c4cnc(N)nc4)cc3)C3CC3)no2)cn1 [BI 665915]
Cell Viability (0.1 µM): 103.286%

CN([C@@H]1CCc2c(CC(=O)O)c3ccccc3n2C1)S(=O)(=O)c1ccc(F)cc1 [MK-7246]
Cell Viability (1 µM): 96.8838%

COc1cc2c(cc1NS(=O)(=O)c1ccc(Br)cc1C)n(C)c(=O)n2C
Cell Viability (1 µM): 96.0295%

Clc1cc2c(NC3CCCC3)nnc(-c3ccncc3)c2cc1Cl
Cell Viability (1 µM): 99.0979%

CCCn1c(=O)c2[nH]c(C3CCCC3)nc2n(CCC)c1=O [1,3-DIPROPYL-8-CYCLOPENTYLXANTHINE [DPCPX]]
Cell Viability (1 µM): 101.399%

COCCn1c(C)c(C)s/c1=N\C(=O)C1C(C)(C)C1(C)C
Cell Viability (1 µM): 97.5131%

CC(C)(O)c1cncc(-c2nc3ccc(F)cc3n2C2CC2)c1 [MSD-CYP11B2]
Cell Viability (1 µM): 100.571%

CN(C)CC#Cc1ccc(OCCCc2sc(N3CCc4cccc(C(=O)Nc5nc6ccccc6s5)c4C3)nc2C(=O)O)c(F)c1 [A-1155463]
Cell Viability (1 µM): 88.7648%

CC1=C(C#N)C(c2ccc3[nH]nc(C)c3c2)C(C#N)=C(C)N1 [BAY-474]
Cell Viability (1 µM): 96.499%

Cc1c(NC(=O)c2cc(C(N)=O)nc3cc(F)ccc23)c(C(F)(F)F)nn1Cc1ccc(C#N)cc1 [BAY-876]
Cell Viability (1 µM): 101.62%

CCCc1cc(C)[nH]c(=O)c1CNC(=O)c1cc(-c2ccc(N3CCN(C(C)C)CC3)nc2)cc2c1cnn2C(C)C
Cell Viability (1 µM): 96.021%

CCc1nc2c(C)cc(C)nc2[nH]1
Cell Viability (1 µM): 100.659%

Nc1nc(NCc2ccccc2)nc(-c2ccccc2CO)n1 [Ogerin]
Cell Viability (1 µM): 100.729%

COc1cc2c(NC3CCN(C(C)C)CC3)nc(N3CCC(F)(F)CC3)nc2cc1OCCCN1CCCC1
Cell Viability (1 µM): 98.4898%

CCNC1(C(N)=O)CCN(c2ncnc3c2nc(-c2ccccc2Cl)n3-c2ccc(Cl)cc2)CC1 [OTENABANT]
Cell Viability (1 µM): 101.882%
